ChEMBL document CHEMBL3997763 (Medchemcomm, 2016)
Activity calls are given as the source filed them. No cut-off for these calls is given here.

What was measured:
Rattus norvegicus [1] = test: Hypolipidemic activity in HFD-induced Charles Foster rat chronic hyperlipidemia model assessed as reduction in serum triglyceride level at 10 mg/kg administered via oral gavage for 30 days simultaneously with high fat diet by enzymatic method relative to HFD treated vehicle; type: functional; settings: 720 h
Rattus norvegicus [2] = test: Hypolipidemic activity in HFD-induced Charles Foster rat assessed as increase in lipolytic activity of LPL in liver at 10 mg/kg administered as single dose via oral gavage for 30 days simultaneously with high fat diet; type: functional, organism-based
[3] = target: T1, 3-hydroxy-3-methylglutaryl-coenzyme A reductase (Homo sapiens) (UniProt P04035); test: Inhibition of human HMG-CoA reductase catalytic domain at 100 uM using HMG-CoA as substrate in presence of NADPH by colorimetric method relative to control
T1 sequence (whole entry): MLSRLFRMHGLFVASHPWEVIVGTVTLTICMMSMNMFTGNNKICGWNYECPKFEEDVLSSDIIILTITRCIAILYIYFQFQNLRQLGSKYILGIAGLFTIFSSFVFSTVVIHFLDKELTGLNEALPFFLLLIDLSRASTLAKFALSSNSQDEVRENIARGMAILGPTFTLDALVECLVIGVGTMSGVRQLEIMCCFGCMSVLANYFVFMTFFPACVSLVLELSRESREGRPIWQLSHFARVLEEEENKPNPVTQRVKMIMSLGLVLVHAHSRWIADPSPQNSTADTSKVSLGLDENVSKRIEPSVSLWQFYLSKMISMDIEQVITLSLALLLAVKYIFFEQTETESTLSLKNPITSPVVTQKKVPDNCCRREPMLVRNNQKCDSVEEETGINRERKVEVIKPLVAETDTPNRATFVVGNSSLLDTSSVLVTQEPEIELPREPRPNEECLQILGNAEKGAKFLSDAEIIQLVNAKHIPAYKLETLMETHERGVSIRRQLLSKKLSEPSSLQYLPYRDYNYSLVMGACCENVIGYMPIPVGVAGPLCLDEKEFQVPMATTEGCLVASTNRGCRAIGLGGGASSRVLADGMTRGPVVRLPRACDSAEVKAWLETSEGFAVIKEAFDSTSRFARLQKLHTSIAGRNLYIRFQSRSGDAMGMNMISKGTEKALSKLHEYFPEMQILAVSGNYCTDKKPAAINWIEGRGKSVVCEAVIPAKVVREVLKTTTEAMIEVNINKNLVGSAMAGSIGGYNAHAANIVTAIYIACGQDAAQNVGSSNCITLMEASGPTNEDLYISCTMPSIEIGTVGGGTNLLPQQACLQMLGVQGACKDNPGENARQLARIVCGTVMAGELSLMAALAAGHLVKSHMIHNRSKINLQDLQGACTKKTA

Rattus norvegicus [4] = test: Antihyperlipidemic activity in triton WR-1339 induced Charles Foster rat hyperlipidemia model assessed as inhibition of total cholesterol level in serum at 10 mg/kg, po administered simultaneously with triton WR-1339 after 18 hrs by enzymatic method relative to control; type: functional
Rattus norvegicus [5] = test: Hypolipidemic activity in HFD-induced Charles Foster rat chronic hyperlipidemia model assessed as reduction in serum AST level at 10 mg/kg administered via oral gavage for 30 days simultaneously with high fat diet by colorimetric method relative to HFD treated vehicle; type: functional; settings: 720 h
Rattus norvegicus [6] = test: Hypolipidemic activity in HFD-induced Charles Foster rat assessed as reduction in serum VLDL-TC at 10 mg/kg administered as single dose via oral gavage for 30 days simultaneously with high fat diet; type: functional, organism-based
Rattus norvegicus [7] = test: Hypolipidemic activity in HFD-induced Charles Foster rat chronic hyperlipidemia model assessed as reduction in serum ALT level at 10 mg/kg administered via oral gavage for 30 days simultaneously with high fat diet by colorimetric method relative to HFD treated vehicle; type: functional; settings: 720 h
Rattus norvegicus [8] = test: Antihyperlipidemic activity in triton WR-1339 induced Charles Foster rat hyperlipidemia model assessed as inhibition of triglyceride level in serum at 10 mg/kg, po administered simultaneously with triton WR-1339 after 18 hrs by enzymatic method relative to control; type: functional
Rattus norvegicus [9] = test: Hypolipidemic activity in HFD-induced Charles Foster rat chronic hyperlipidemia model assessed as reduction in liver total cholesterol level at 10 mg/kg administered via oral gavage for 30 days simultaneously with high fat diet by enzymatic method relative to HFD treated vehicle; type: functional; settings: 720 h
Rattus norvegicus [10] = test: Hypolipidemic activity in HFD-induced Charles Foster rat assessed as increase in serum HDL-TC at 10 mg/kg administered as single dose via oral gavage for 30 days simultaneously with high fat diet; type: functional, organism-based
[11] = target: T1, 3-hydroxy-3-methylglutaryl-coenzyme A reductase (Homo sapiens); test: Inhibition of human HMG-CoA reductase catalytic domain at 20 uM using HMG-CoA as substrate in presence of NADPH by colorimetric method relative to control
Rattus norvegicus [12] = test: Antihyperlipidemic activity in triton WR-1339 induced Charles Foster rat hyperlipidemia model assessed as inhibition of phospholipid level in serum at 10 mg/kg, po administered simultaneously with triton WR-1339 after 18 hrs by enzymatic method relative to control; type: functional
Rattus norvegicus [13] = test: Hypolipidemic activity in HFD-induced Charles Foster rat assessed as inhibition of hepatic HMG-CoA reductase activity by measuring […] at 10 mg/kg administered as single dose via oral gavage for 30 days simultaneously with high fat diet by colorimetric method; type: functional, organism-based
Rattus norvegicus [14] = test: Hypolipidemic activity in HFD-induced Charles Foster rat chronic hyperlipidemia model assessed as reduction in liver triglyceride level at 10 mg/kg administered via oral gavage for 30 days simultaneously with high fat diet by enzymatic method relative to HFD treated vehicle; type: functional; settings: 720 h
Rattus norvegicus [15] = test: Hypolipidemic activity in HFD-induced Charles Foster rat assessed as increase in serum LCAT activity at 10 mg/kg administered as single dose via oral gavage for 30 days simultaneously with high fat diet by photometric method; type: functional, organism-based
Rattus norvegicus [16] = test: Hypolipidemic activity in HFD-induced Charles Foster rat chronic hyperlipidemia model assessed as reduction in serum total cholesterol level at 10 mg/kg administered via oral gavage for 30 days simultaneously with high fat diet by enzymatic method relative to HFD treated vehicle; type: functional; settings: 720 h
Rattus norvegicus [17] = test: Hypolipidemic activity in HFD-induced Charles Foster rat assessed as increase in serum HDL-TG at 10 mg/kg administered as single dose via oral gavage for 30 days simultaneously with high fat diet; type: functional, organism-based
Rattus norvegicus [18] = test: Hypolipidemic activity in HFD-induced Charles Foster rat assessed as reduction in serum LDL-TG at 10 mg/kg administered as single dose via oral gavage for 30 days simultaneously with high fat diet; type: functional, organism-based
Rattus norvegicus [19] = test: Hypolipidemic activity in HFD-induced Charles Foster rat assessed as reduction in serum VLDL-TG at 10 mg/kg administered as single dose via oral gavage for 30 days simultaneously with high fat diet; type: functional, organism-based
[20] = target: T1, 3-hydroxy-3-methylglutaryl-coenzyme A reductase (Homo sapiens); test: Inhibition of human HMG-CoA reductase catalytic domain at 5 uM using HMG-CoA as substrate in presence of NADPH by colorimetric method relative to control
Rattus norvegicus [21] = test: Hypolipidemic activity in HFD-induced Charles Foster rat assessed as increase in human I125-LDL binding to rat liver plasma membrane at 10 mg/kg administered as single dose via oral gavage for 30 days simultaneously with high fat diet by minigamma counting; type: functional, organism-based
Rattus norvegicus [22] = test: Hypolipidemic activity in HFD-induced Charles Foster rat assessed as reduction in serum LDL-TC at 10 mg/kg administered as single dose via oral gavage for 30 days simultaneously with high fat diet; type: functional, organism-based
[23] = target: T1, 3-hydroxy-3-methylglutaryl-coenzyme A reductase (Homo sapiens); test: Inhibition of human HMG-CoA reductase catalytic domain at 50 uM using HMG-CoA as substrate in presence of NADPH by colorimetric method relative to control
[24] = target: T1, 3-hydroxy-3-methylglutaryl-coenzyme A reductase (Homo sapiens); test: Inhibition of human HMG-CoA reductase catalytic domain at 10 uM using HMG-CoA as substrate in presence of NADPH by colorimetric method relative to control
[25] = target: T1, 3-hydroxy-3-methylglutaryl-coenzyme A reductase (Homo sapiens); test: Inhibition of human HMG-CoA reductase catalytic domain at 1 uM using HMG-CoA as substrate in presence of NADPH by colorimetric method relative to control

CC(C)c1c(C(=O)Nc2ccccc2)c(-c2ccccc2)c(-c2ccc(F)cc2)n1CC[C@@H](O)C[C@@H](O)CC(=O)O [ATORVASTATIN]
inhibition in vivo at 10 mg/kg (Rattus norvegicus [1]): 26%
Activity (Rattus norvegicus [2]): Active
inhibition [3]: 83%
inhibition in vivo at 10 mg/kg (Rattus norvegicus [4]): 36%
inhibition in vivo at 10 mg/kg (Rattus norvegicus [5]): 29%
Activity (Rattus norvegicus [6]): Active
inhibition in vivo at 10 mg/kg (Rattus norvegicus [7]): 25%
inhibition in vivo at 10 mg/kg (Rattus norvegicus [8]): 35%
inhibition in vivo at 10 mg/kg (Rattus norvegicus [9]): 28%
Activity (Rattus norvegicus [10]): Active
inhibition [11]: 69%
inhibition in vivo at 10 mg/kg (Rattus norvegicus [12]): 35%
inhibition (Rattus norvegicus [13]): Active
inhibition in vivo at 10 mg/kg (Rattus norvegicus [14]): 30%
Activity (Rattus norvegicus [15]): Active
inhibition in vivo at 10 mg/kg (Rattus norvegicus [16]): 25%
Activity (Rattus norvegicus [17]): Active
Activity (Rattus norvegicus [18]): Active
Activity (Rattus norvegicus [19]): Active
inhibition [20]: 35%
Activity (Rattus norvegicus [21]): Active
Activity (Rattus norvegicus [22]): Active
inhibition [23]: 76%
inhibition [24]: 60 to 63%
inhibition [25]: 20%
